According to ChEMBL document CHEMBL1909046, “DrugMatrix in vitro pharmacology data”:
Where a SMILES comes first, the peptide text is derived from it. Bridges are numbered along the chain shown (N, C = ends). [ ]: non-standard residue; d: D form. The star is where a group is joined. Threoninol(2S,3R) = C[C@@H](O)[C@H](CO)N*

Experiments:
[1] = biological target: Mitogen-activated protein kinase 3 (Homo sapiens, UniProt P27361); assay: DRUGMATRIX: Protein Serine/Threonine Kinase, ERK1 enzyme inhibition (substrate: Myelin Basic Protein); set-up: species or system Escherichia coli; conditions: Not Active = under 50% inhibition at 10 µM
Mitogen-activated protein kinase 3, sequence (P27361 whole entry): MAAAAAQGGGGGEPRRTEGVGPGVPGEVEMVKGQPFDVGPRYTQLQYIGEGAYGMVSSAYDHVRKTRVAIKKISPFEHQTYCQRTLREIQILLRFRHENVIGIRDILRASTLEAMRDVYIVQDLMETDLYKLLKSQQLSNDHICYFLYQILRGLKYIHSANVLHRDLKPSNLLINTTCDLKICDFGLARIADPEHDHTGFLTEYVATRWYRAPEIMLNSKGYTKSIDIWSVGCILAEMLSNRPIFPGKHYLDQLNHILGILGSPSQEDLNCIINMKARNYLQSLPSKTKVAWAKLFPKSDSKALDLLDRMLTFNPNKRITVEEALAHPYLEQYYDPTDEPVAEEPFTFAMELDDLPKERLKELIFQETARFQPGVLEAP

[2] = biological target: Protein kinase C alpha type (Homo sapiens, UniProt P17252); format: cell-based; conditions: sf9;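 note: inhibition of PKCalpha kinase activity measured in an enzyme assay with histone as the phosphorylation substrate; in other assays of this panel Not Active means under 50% inhibition at 10 µM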
[3] = biological target: Melanocortin receptor 4 (Homo sapiens, UniProt P32245); format: cell membranes, Membrane; conditions: hek293; note: in other assays of this panel Not Active means under 50% inhibition at 10 µM
Melanocortin receptor 4, sequence (P32245 whole entry): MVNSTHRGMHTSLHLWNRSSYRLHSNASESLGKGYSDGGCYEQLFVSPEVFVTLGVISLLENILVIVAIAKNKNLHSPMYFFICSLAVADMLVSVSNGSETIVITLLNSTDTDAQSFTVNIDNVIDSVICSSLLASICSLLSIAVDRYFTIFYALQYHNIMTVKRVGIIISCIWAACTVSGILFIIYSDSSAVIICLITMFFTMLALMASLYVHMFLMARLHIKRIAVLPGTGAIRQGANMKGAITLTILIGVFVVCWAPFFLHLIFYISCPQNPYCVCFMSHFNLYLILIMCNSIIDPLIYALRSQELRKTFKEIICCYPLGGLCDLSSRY

[4] = biological target: Histamine H2 receptor (Homo sapiens, UniProt P25021); format: cell membranes, CHO-K1, Membrane; conditions: cho-k1; note: in other assays of this panel Not Active means under 50% inhibition at 10 µM
Histamine H2 receptor, sequence (P25021 whole entry): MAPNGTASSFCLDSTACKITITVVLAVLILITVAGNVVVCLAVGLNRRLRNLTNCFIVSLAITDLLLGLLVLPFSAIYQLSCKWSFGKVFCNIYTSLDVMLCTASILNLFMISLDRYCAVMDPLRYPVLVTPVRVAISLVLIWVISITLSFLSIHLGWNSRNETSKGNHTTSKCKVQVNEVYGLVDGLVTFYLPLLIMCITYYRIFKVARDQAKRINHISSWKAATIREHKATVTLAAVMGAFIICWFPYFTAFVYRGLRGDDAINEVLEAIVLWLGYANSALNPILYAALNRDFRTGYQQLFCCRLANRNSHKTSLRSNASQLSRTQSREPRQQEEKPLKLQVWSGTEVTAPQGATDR

[5] = biological target: T1, Muscarinic acetylcholine receptor M4 (Homo sapiens, UniProt P08173); format: cell membranes, CHO-K1, Membrane; conditions: cho-k1; note: in other assays of this panel Not Active means under 50% inhibition at 10 µM
T1 sequence (P08173 whole entry): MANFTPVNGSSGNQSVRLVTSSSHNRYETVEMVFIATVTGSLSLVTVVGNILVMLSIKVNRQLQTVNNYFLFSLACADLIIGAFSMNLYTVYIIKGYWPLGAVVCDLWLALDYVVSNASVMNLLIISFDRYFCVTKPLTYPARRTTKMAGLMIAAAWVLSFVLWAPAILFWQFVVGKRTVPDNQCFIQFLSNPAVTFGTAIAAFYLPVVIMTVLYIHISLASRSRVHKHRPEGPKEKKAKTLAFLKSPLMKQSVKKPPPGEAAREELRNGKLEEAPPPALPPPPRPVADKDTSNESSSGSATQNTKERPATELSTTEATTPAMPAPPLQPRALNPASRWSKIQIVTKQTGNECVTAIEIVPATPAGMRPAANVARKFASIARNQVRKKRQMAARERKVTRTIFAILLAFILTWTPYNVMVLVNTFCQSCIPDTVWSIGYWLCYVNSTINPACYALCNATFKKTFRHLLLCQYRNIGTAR

[6] = DRUGMATRIX: Glutamate, AMPA radioligand binding (ligand: [3H] AMPA); format: cell membranes, Rattus norvegicus, Wistar, Cerebral cortex, Membrane; conditions: Not Active = under 50% inhibition at 10 µM
[7] = biological target: Mu-type opioid receptor (Homo sapiens, UniProt P35372); assay: DRUGMATRIX: Opiate mu (OP3, MOP) radioligand binding (ligand: [3H] Diprenorphine); format: cell membranes, CHO-K1, Membrane; conditions: cho-k1; Not Active = under 50% inhibition at 10 µM
Mu-type opioid receptor, sequence (P35372 whole entry): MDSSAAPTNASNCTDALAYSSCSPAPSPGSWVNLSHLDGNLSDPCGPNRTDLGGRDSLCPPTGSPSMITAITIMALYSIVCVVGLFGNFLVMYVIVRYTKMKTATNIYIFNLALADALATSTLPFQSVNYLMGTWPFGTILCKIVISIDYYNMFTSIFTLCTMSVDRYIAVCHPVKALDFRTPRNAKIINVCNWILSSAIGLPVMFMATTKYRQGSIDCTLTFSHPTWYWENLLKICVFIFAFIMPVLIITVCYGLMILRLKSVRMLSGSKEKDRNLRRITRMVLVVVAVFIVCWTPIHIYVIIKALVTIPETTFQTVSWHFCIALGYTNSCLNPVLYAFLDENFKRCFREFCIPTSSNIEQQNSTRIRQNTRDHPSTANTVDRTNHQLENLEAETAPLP

CADMIUM DICHLORIDE
Not Active: IC50 [1] | Ki [1] | IC50 [2] | Ki [2] | IC50 [3] | Ki [3] | IC50 [4] | Ki [4] | IC50 [5] | Ki [5] | IC50 [6] | Ki [6]

CCCN(CCC)C(=O)C(CCC(=O)O)NC(=O)c1ccccc1 (stereo not given) [PROGLUMIDE]
Not Active: IC50 [7] | IC50 [1] | IC50 [2] | IC50 [3] | IC50 [4] | IC50 [5] | IC50 [6] | Ki [6]

O=C(N[C@H](CO)[C@H](O)c1ccc([N+](=O)[O-])cc1)C(Cl)Cl [CHLORAMPHENICOL]
Not Active: IC50 [7] | IC50 [1] | IC50 [2] | IC50 [3] | IC50 [4] | IC50 [5] | IC50 [6] | Ki [6]

CCCCOc1ccc(OCCCN2CCOCC2)cc1 [PRAMOXINE]
Not Active: IC50 [7] | IC50 [1] | IC50 [2] | IC50 [3] | IC50 [4] | IC50 [5] | IC50 [6] | Ki [6]

CC(C)(C(=O)c1cccnc1)c1cccnc1 [METYRAPONE]
Not Active: IC50 [7] | IC50 [1] | IC50 [2] | IC50 [3] | IC50 [4] | IC50 [5] | IC50 [6] | Ki [6]

CC(=O)Nc1cccc(O)c1 [METACETAMOL]
Not Active: IC50 [7] | IC50 [1] | IC50 [2] | IC50 [3] | IC50 [4] | IC50 [5] | IC50 [6] | Ki [6]

NC(=O)c1cnccn1 [PYRAZINAMIDE]
Not Active: IC50 [7] | IC50 [1] | IC50 [2] | IC50 [3] | IC50 [4] | IC50 [5] | IC50 [6] | Ki [6]

CC[C@@H](CO)NCCN[C@@H](CC)CO [ETHAMBUTOL]
Not Active: IC50 [7] | IC50 [1] | IC50 [2] | IC50 [3] | IC50 [4] | IC50 [5] | IC50 [6] | Ki [6]

CC(C)(Oc1ccc(C2CCCc3ccccc32)cc1)C(=O)O (stereo not given) [NAFENOPIN]
Not Active: IC50 [7] | IC50 [1] | IC50 [2] | IC50 [3] | IC50 [4] | IC50 [5] | IC50 [6] | Ki [6]

C[C@@H]1C[C@@H]([C@H](O)CC2CC(=O)NC(=O)C2)C(=O)[C@@H](C)C1 [CYCLOHEXIMIDE]
Not Active: IC50 [1] | IC50 [2] | IC50 [3] | IC50 [4] | IC50 [5] | IC50 [6] | Ki [6]

CCn1cc(C(=O)O)c(=O)c2cc(F)c(N3CCN(C)CC3)cc21 [PEFLOXACIN]
Not Active: IC50 [7] | IC50 [1] | IC50 [2] | IC50 [3] | IC50 [4] | IC50 [5] | IC50 [6] | Ki [6]

CCN(CC)CCOC(=O)c1ccc(N)cc1 [PROCAINE]
Not Active: IC50 [7] | IC50 [1] | IC50 [2] | IC50 [3] | IC50 [4] | IC50 [5] | IC50 [6] | Ki [6]

CCCC(CCC)C(=O)O [VALPROIC ACID]
Not Active: IC50 [7] | IC50 [1] | IC50 [2] | IC50 [3] | IC50 [4] | IC50 [5] | IC50 [6] | Ki [6]

S=C=Nc1cccc2ccccc12 [1-NAPHTHYLISOTHIOCYANATE]
Not Active: IC50 [1] | IC50 [2] | IC50 [3] | IC50 [4] | IC50 [5] | IC50 [6] | Ki [6]

COc1ccc2cc([C@H](C)C(=O)O)ccc2c1 [NAPROXEN]
Not Active: IC50 [7] | IC50 [1] | IC50 [2] | IC50 [3] | IC50 [4] | IC50 [5] | IC50 [6] | Ki [6]

Cc1ccccc1C(=O)N1CCC(Cc2ccccc2)CC1
Not Active: IC50 [7] | IC50 [1] | IC50 [2] | IC50 [3] | IC50 [4] | IC50 [5] | IC50 [6] | Ki [6]

C[C@@H](O)[C@H](CO)NC(=O)[C@@H]1CSSC[C@H](NC(=O)[C@H](N)Cc2ccccc2)C(=O)N[C@@H](Cc2ccccc2)C(=O)N[C@H](Cc2c[nH]c3ccccc23)C(=O)N[C@@H](CCCCN)C(=O)N[C@@H]([C@@H](C)O)C(=O)N1 (H-[dF]CF[dW]KTC-{Threoninol(2S,3R)}; disulfide 2-7)
Not Active: IC50 [7] | IC50 [1] | IC50 [2] | IC50 [3] | IC50 [4] | IC50 [5] | IC50 [6] | Ki [6]

Cc1nccn1CC1CCc2c(c3ccccc3n2C)C1=O (stereo not given) [ONDANSETRON]
Not Active: IC50 [7] | IC50 [1] | IC50 [2] | IC50 [3] | IC50 [4] | IC50 [5] | IC50 [6] | Ki [6]

C#C[C@]1(O)CC[C@H]2[C@@H]3CCc4cc(OC)ccc4[C@H]3CC[C@@]21C [MESTRANOL]
Not Active: IC50 [7] | IC50 [1] | IC50 [2] | IC50 [3] | IC50 [4] | IC50 [5] | IC50 [6] | Ki [6]

COc1cc2c(c3oc(=O)c4c(c13)CCC4=O)[C@@H]1C=CO[C@@H]1O2 [AFLATOXIN]
Not Active: IC50 [7] | Ki [7] | IC50 [1] | Ki [1] | IC50 [2] | Ki [2] | IC50 [3] | Ki [3] | IC50 [4] | Ki [4] | IC50 [5] | Ki [5] | IC50 [6] | Ki [6]

CC1(C)O[C@@H]2C[C@H]3[C@@H]4C[C@H](F)C5=CC(=O)CC[C@]5(C)[C@H]4[C@@H](O)C[C@]3(C)[C@]2(C(=O)CO)O1 [FLURANDRENOLIDE]
Not Active: IC50 [7] | IC50 [1] | IC50 [2] | IC50 [3] | IC50 [4] | IC50 [5] | IC50 [6] | Ki [6]

CC1(C)O[C@@H]2C[C@H]3[C@@H]4C[C@H](F)C5=CC(=O)C=C[C@]5(C)[C@@]4(F)[C@@H](O)C[C@]3(C)[C@]2(C(=O)CO)O1 [FLUOCINOLONE ACETONIDE]
Not Active: IC50 [7] | IC50 [1] | IC50 [2] | IC50 [3] | IC50 [4] | IC50 [5] | IC50 [6] | Ki [6]

CC(C(=O)O)c1cccc(C(=O)c2ccccc2)c1 (stereo not given) [KETOPROFEN]
Not Active: IC50 [7] | IC50 [1] | IC50 [2] | IC50 [3] | IC50 [4] | IC50 [5] | IC50 [6] | Ki [6]

NC(=O)NO [HYDROXYUREA]
Not Active: IC50 [7] | IC50 [1] | IC50 [2] | IC50 [3] | IC50 [4] | IC50 [5] | IC50 [6] | Ki [6]

O=c1ccc2ccccc2o1 [COUMARIN]
Not Active: IC50 [7] | IC50 [1] | IC50 [2] | IC50 [3] | IC50 [4] | IC50 [5] | IC50 [6] | Ki [6]

CN1C(=O)COc2c(C(=O)NC3CN4CCC3CC4)cc(Cl)cc21 (stereo not given) [AZASETRON]
Not Active: IC50 [7] | IC50 [1] | IC50 [2] | IC50 [3] | IC50 [4] | IC50 [5] | IC50 [6] | Ki [6]

C[C@H]1C[C@H]2[C@@H]3CCC4=CC(=O)C=C[C@]4(C)[C@@]3(Cl)[C@@H](O)C[C@]2(C)[C@@]1(O)C(=O)CO [BECLOMETHASONE]
Not Active: IC50 [7] | IC50 [1] | IC50 [2] | IC50 [3] | IC50 [4] | IC50 [5] | IC50 [6] | Ki [6]

COP(=O)(OC)OC=C(Cl)Cl [DICHLORVOS]
Not Active: IC50 [1] | IC50 [2] | IC50 [3] | IC50 [4] | IC50 [5] | IC50 [6] | Ki [6]

OC(CCN1CCCCC1)(c1ccccc1)C1CCCCC1 (stereo not given) [TRIHEXYPHENIDYL]
Not Active: IC50 [7] | IC50 [1] | IC50 [2] | IC50 [3] | IC50 [4] | IC50 [6] | Ki [6]

C[C@@]12C(=O)OC(=O)[C@]1(C)[C@H]1CC[C@@H]2O1 [CANTHARIDIN]
Not Active: IC50 [1] | IC50 [2] | IC50 [3] | IC50 [4] | IC50 [5] | IC50 [6] | Ki [6]
